Test results from patent US8350048B2, “Amide compounds as boosters of antivirals” (Janssen R&D Ireland, priority 2007, dated 2013).
Read-outs that look alike come from different tables or passages of the source.

How the values were obtained:
[1] = system: wild-type HIV-1IIIB strain; assay: Antiviral activity, MT4 LTR-EGFP cellular assay; assay type: cell-based; set-up: key to Antiviral activity IIIB (pEC50): pEC50 = -log10(EC50); details: wild-type HIV-1 IIIB, MT4 LTR-EGFP cells, three days after infection
MT4 CMV-EGFP cells = assay: Toxicity, mock-infected MT4 CMV-EGFP cells; assay type: cell-based, human
[2] = Metabolic stability of test compounds (HLM15'); assay type: in vitro ADME, human
CYP3A4 [3] = molecular target: T1, CYP3A4 (Homo sapiens, UniProt P08684); assay: CYP450 inhibition CDNA-CYP3A4-BFC; details: for Cyp450 inhibition: CDNA-CYP3A4-BFC (% inhibition): 10 μM test compound, substrate BFC 150 μM, 30 min
Source text: (§1) Assay 4: CYP450 Inhibition

CYP3A4 [4] = molecular target: T1, CYP3A4; assay: CYP450 inhibition CDNA-CYP3A4-BQ; details: for Cyp450 inhibition: CDNA-CYP3A4-BQ (% inhibition): 10 μM test compound, substrate BQ 60 μM, 30 min
Source text: as §1

CYP2C9 = CYP2C9 (Homo sapiens, UniProt P11712); assay: in vitro
Source text: as §1

CYP3A4 [5] = molecular target: T1, CYP3A4; assay: in vitro; details: for Cyp450 inhibition: CDNA-CYP3A4-DBF (% inhibition): 10 μM test compound, substrate DBF 1 μM, 10 min
Source text: as §1

CYP1A2 [6] = molecular target: T2, CYP1A2 (Homo sapiens, UniProt P05177); assay: CYP450 inhibition CDNA-CYP1A2-CEC; details: 10 μM test compound, substrate CEC 5 μM, 15 min
T2 sequence (P05177 1-516): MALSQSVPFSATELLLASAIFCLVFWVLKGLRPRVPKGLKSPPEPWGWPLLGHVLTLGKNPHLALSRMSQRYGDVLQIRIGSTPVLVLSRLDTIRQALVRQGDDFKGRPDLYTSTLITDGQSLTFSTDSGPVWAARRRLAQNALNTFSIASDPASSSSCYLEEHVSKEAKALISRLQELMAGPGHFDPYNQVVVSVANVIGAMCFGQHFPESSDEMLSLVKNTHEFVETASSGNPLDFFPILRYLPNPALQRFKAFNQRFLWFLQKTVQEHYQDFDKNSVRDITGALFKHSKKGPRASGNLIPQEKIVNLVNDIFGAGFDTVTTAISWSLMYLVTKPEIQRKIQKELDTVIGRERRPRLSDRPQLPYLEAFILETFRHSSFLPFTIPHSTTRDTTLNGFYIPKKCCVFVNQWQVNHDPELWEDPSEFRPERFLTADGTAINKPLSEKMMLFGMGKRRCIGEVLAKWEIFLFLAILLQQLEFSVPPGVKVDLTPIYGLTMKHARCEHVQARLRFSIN

CYP2D6 [7] = molecular target: T3, CYP2D6 (Homo sapiens, UniProt P10635); assay: CYP450 inhibition CDNA-CYP2D6-AMMC; details: 10 μM test compound, substrate AMMC 3 μM, 45 min
CYP2C19 [8] = molecular target: T4, CYP2C19 (Homo sapiens, UniProt P33261); assay: CYP450 inhibition CDNA-CYP2C19-CEC; details: 10 μM test compound, substrate CEC 25 μM, 30 min
[9] = Toxicity, mock-infected MT4 CMV-EGFP cells; assay type: cell-based, human; details: human, mock-infected MT4 CMV-EGFP cells; read-out: Toxicity MT4 (pCC50) (converted)
CYP2D6 [10] = molecular target: T3, CYP2D6; assay: in vitro; details: pH 7.4
CYP1A2 [11] = molecular target: T2, CYP1A2; assay: in vitro; details: E. coli expressed CYP1A2, pH 7.4, probe CEC 5 μM
CYP2C19 [12] = molecular target: T4, CYP2C19; assay: in vitro; details: E. coli expressed CYP2C19, pH 7.4, probe CEC 25 μM
[13] = In vivo boosting capacity: pharmacokinetics of darunavir in Beagle dogs; details: fed male Beagle dogs, booster 5 mg/kg oral 15 min before darunavir 5 mg/kg oral, average of 3 dogs
Procedure: Oral dosing was done by gavage. At all times, the dogs were given free and continuous access to water. Blood samples were collected from the jugular vein at 0 (=predose), 0.5, 1, 2, 4, 7, and 24 h after dose administration. The samples were centrifuged at 1900×g for 10 min at 5° C. to allow plasma separation. Separated plasma was stored in the freezer within two hours after blood sampling. At all times, blood and plasma samples were placed on melting ice and protected from light. […] Values listed are the average of 3 dogs.

[14] = mock-infected MT4 CMV-EGFP cells
[15] = human liver microsomes 1 mg/ml, 5 μM test compound, 15 min

Sequence of CYP2C9 (P11712 whole entry): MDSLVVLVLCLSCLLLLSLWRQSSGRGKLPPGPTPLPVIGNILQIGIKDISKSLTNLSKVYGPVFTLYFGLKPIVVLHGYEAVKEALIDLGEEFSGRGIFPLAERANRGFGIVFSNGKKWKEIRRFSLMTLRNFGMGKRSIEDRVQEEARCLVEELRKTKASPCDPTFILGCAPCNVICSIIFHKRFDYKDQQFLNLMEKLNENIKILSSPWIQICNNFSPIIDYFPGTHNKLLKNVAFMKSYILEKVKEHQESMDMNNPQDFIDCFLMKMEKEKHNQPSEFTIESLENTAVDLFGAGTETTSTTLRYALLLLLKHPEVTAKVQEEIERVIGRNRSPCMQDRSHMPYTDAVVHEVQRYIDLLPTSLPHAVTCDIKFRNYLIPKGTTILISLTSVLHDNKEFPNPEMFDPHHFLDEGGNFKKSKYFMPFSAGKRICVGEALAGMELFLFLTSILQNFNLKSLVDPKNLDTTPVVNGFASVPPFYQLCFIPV
T3 sequence (P10635 whole entry): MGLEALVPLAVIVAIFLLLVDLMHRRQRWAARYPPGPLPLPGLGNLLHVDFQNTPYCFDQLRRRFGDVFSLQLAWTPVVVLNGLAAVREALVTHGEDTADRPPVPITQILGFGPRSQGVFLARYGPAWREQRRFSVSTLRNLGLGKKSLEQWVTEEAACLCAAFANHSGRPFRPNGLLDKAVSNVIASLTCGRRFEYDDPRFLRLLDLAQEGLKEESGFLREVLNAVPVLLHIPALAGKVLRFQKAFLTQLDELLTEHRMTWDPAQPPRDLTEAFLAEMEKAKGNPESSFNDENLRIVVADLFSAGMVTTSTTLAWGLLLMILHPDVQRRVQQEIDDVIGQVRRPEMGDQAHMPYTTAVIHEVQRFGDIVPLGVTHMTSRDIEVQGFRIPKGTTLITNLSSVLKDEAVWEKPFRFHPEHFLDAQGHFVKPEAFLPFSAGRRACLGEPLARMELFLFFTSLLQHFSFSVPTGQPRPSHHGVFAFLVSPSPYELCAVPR
T4 sequence (P33261 whole entry): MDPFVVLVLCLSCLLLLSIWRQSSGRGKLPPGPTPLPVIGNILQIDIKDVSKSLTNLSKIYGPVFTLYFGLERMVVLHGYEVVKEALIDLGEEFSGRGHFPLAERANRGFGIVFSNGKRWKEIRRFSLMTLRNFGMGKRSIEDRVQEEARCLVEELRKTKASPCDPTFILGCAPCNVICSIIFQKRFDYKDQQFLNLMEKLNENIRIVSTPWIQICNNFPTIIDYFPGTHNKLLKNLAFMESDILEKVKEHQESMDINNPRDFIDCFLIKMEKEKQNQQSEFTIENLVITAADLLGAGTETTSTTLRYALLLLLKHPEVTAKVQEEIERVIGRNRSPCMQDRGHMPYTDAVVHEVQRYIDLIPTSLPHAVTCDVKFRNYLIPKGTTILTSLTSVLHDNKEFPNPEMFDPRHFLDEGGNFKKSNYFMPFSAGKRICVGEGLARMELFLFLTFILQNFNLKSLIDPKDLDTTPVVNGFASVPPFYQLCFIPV
T1 sequence (P08684 whole entry): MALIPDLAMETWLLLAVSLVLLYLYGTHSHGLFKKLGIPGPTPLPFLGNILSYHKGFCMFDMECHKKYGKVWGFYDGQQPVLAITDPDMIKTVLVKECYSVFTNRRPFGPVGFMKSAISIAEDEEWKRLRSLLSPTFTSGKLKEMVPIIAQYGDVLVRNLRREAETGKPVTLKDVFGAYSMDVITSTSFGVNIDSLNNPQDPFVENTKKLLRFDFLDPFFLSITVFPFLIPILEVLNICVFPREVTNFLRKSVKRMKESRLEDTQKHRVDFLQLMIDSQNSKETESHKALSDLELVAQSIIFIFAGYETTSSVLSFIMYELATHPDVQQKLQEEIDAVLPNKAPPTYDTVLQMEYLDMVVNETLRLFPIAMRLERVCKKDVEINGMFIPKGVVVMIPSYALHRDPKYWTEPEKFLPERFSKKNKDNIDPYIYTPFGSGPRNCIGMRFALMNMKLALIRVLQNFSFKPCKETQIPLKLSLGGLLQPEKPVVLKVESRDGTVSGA

SMILES	Antiviral activity IIIB (pEC50) [1]	Toxicity MT4 (pCC50) (MT4 CMV-EGFP cells; [14])	Cyp450 inhibition: CDNA-CYP3A4-BFC (% inhibition) (CYP3A4 [3]) [%]	Cyp450 inhibition: CDNA-CYP3A4-BQ (% inhibition) (CYP3A4 [4]) [%]	Cyp450 inhibition: CDNA-CYP2C9-MFC (% inhibition) (CYP2C9) [%]	Cyp450 inhibition: CDNA-CYP3A4-DBF (% inhibition) (CYP3A4 [5]) [%]	Cyp450 inhibition: CDNA-CYP1A2-CEC (% inhibition) (CYP1A2 [6]) [%]	Cyp450 inhibition: CDNA-CYP2D6-AMMC (% inhibition) (CYP2D6 [7]) [%]	Cyp450 inhibition: CDNA-CYP2C19-CEC (% inhibition) (CYP2C19 [8]) [%]	Metabolic stability (HLM, % recovery after 15') [2, 15] [%]	other results
CC(C)CN(C[C@@H](O)[C@H](Cc1ccccc1)NC(=O)OCc1cncs1)C(=O)c1ccc2nc(-c3ccncc3)oc2c1 [Compound C48]	<4.00	<4.00	97	85	99	98	18	74	94	–	Metabolic stability (HLM, % recovery after 15') [2]: 91%
CC(C)CN(C[C@@H](O)[C@H](Cc1ccccc1)NC(=O)OCc1cncs1)C(=O)c1ccc2nc(N(C)C)oc2c1 [Compound C4]	=4.33	=4.32	–	–	94	–	7	26	82	67	–
CC(C)CN(C[C@@H](O)[C@H](Cc1ccccc1)NC(=O)OCc1cncs1)C(=O)c1ccc2nc(NC3CCN(C)CC3)oc2c1 [Compound C25]	<4.00	<4.00	77	71	12	76	0	67	7	8	–
CC(C)CN(C[C@@H](O)[C@H](Cc1ccccc1)NC(=O)OCc1cncs1)C(=O)c1ccc2ncoc2c1 [Compound C38, Thiazol-5-ylmethyl (2S,3R)-3-hydroxy-4-(N-isobutylbenzo[d]oxazole-6-carboxamido)-1-phenylbutan-2-ylcarbamate]	–	–	–	–	–	–	–	–	–	–	EC50 ([1]; Human immunodeficiency virus 1, 72 h, read-out: Antiviral activity IIIB (pEC50) (converted)): > 100 µM; CC50 at 3 days [9]: > 100 µM; recovery at 15 min, 5 μM ([2]; pH 7.4, human liver microsomes 1 mg/ml, 5 μM test compound, 15 min, read-out: Metabolic stability (HLM, % recovery after 15')): 67%; inhibition at 30 min, 10 μM (CYP3A4 [3]; human, E. coli expressed CYP3A4, pH 7.4, probe BFC 150 μM): 95%; inhibition at 30 min, 10 μM (CYP3A4 [4]; human, E. coli expressed CYP3A4, pH 7.4, probe BQ 60 μM): 76%; inhibition at 30 min, 10 μM (CYP2C9; human, pH 7.4): 93%; inhibition at 10 min, 10 μM (CYP3A4 [5]; human, pH 7.4): 92%; inhibition at 45 min, 10 μM (CYP2D6 [10]): 77%; inhibition at 15 min, 10 μM (CYP1A2 [11]): 7%; inhibition at 30 min, 10 μM (CYP2C19 [12]): 81%
CC(C)CN(C[C@@H](O)[C@H](Cc1ccccc1)NC(=O)OCc1cncs1)C(=O)c1ccc2ncsc2c1 [Compound C7]	=4.02	–	–	–	99	–	–	–	–	65	Toxicity MT4 (pCC50) (MT4 CMV-EGFP cells): =4.00; C7h of darunavir [13]: 134 ng/mL
CCNc1nc2ccc(C(=O)N(CC(C)C)C[C@@H](O)[C@H](Cc3ccccc3)NC(=O)OCc3cncs3)cc2o1 [Compound C27]	=4.07	<4.00	94	80	94	94	10	70	79	52	–
CCNc1nc2ccc(C(=O)N(C[C@@H](O)[C@H](Cc3ccccc3)NC(=O)OCc3cncs3)CC(C)(C)O)cc2o1 [Compound C44]	<4.00	<4.00	–	–	95	–	0	38	62	70	–
